Experimental data published in patent US6737418B2, “Aryl substituted pyrazoles, imidazoles, oxazoles, thiazoles and pyrroles, and the use thereof” (Euro-Celtique S.A., priority 1999, dated 2004).

These compounds were tested on maximal electroshock-induced seizures (MES) (assay: Maximum electroshock seizure test (MES), oral administration to mice). Details: 30 minutes before the test, dose protecting 50% of animals.
Assay type: in vivo
Text: The compounds of the present invention may be tested for in vivo anticonvulsant activity after i.v., p.o. or i.p. injection using a number of anticonvulsant tests in mice, including the maximum electroshock seizure test (MES). Maximum electroshock seizures were induced in male NSA mice weighing between 15-20 g and male Sprague-Dawley rats weighing between 200-225 g by application of current (50 mA, 60 pulses/sec, 0.8 msec pulse width, 1 sec duration, D.C., mice; 99 mA, 125 pulses/sec, 0.8 msec pulse width, 2 sec duration, D.C., rats) using a Ugo Basile ECT device (Model 7801). Mice were restrained by gripping the loose skin on their dorsal surface and saline-coated corneal electrodes were held lightly against the two corneae. Rats were allowed free movement on the bench top and ear-clip electrodes were used. […] A tonic seizure was defined as a hindlimb extension in excess of 90 degrees from the plane of the body. Results were treated in a quantal manner.
The ability of 3-[4-(2,4-difluorophenoxy)phenyl]-1H-pyrazole-1-carboxamide to block maximal electroshock-induced seizures (MES) was determined as described earlier.
3-[4-(2,4-Difluorophenoxy)phenyl]-1H-pyrazole-1-carboxamide was administered p.o. to mice 30 minutes before the test procedure.
The following compounds in Table 1 were tested in MES as described for 3-[4-(2,4-difluorophenoxy)phenyl]-1H-pyrazole-1-carboxamide: […]

Row | Structure (SMILES) | MES p.o. ED50 [mg/kg]
1 | CN1CCN(C(=O)Cn2nccc2-c2ccc(Oc3ccc(F)cc3)cc2)CC1 [2-{5-[4-(4-Fluorophenoxy)phenyl]-pyrazol-1-yl}-1-(4-methyl)piperazine-1-yl-ethanone] | 10
2 | Cc1nc(-c2ccc(Oc3ccc(F)cc3F)cc2)c[nH]1 [4-[4-(2,4-Difluorophenoxy)phenyl]-2-methyl]-1H-imidazole] | 7.5

Same assay, conditions: Mus musculus, po, 30 minutes before the test, dose protecting 50% of animals

Row | Structure (SMILES) | ED50 [mg/kg]
3 | Fc1ccc(Oc2ccc(-c3c[nH]cn3)cc2F)cc1 [4-[4-(4-Fluorophenoxy)-3-fluorophenyl]-1H-imidazole] | 3.2
4 | NC(=O)c1ccc(-c2ccc(Oc3ccc(F)cc3)cc2)[nH]1 [5-[4-(4-Fluorophenoxy)phenyl]-pyrrole-2-carboxamide] | 10
5 | NC(=O)n1ccc(-c2ccc(Oc3ccc(F)cc3)c(F)c2)n1 [3-[3-fluoro-4-(4-fluorophenoxy)phenyl]-1H-pyrazole-1-carboxamide] | 4.5
6 | CC(=O)N(C)n1nccc1-c1ccc(Oc2ccc(F)cc2)cc1 [2-(N-methylacetamido)-3-[4-(4-fluorophenoxy)phenyl]-2H-pyrazole] | 2.9
7 | CS(=O)(=O)NCCn1nccc1-c1ccc(Oc2ccc(F)cc2)cc1 [1-[2-(Methanesulfonylamino)ethyl]-5-[4-(4-fluorophenoxy)phenyl]-1H-pyrazole] | 7.5
8 | Fc1ccc(Oc2ccc(-c3c[nH]cn3)cc2)cc1 [4-[4-(4-Fluorophenoxy)phenyl]-1H-imidazole] | 4.2
9 | Fc1ccc(Oc2ccc(-c3cc[nH]n3)cc2)cc1 [3-[4-(4-Fluorophenoxy)phenyl]-1H-pyrazole] | 8
10 | CN(C)C(=O)n1ccc(-c2ccc(Oc3ccc(F)cc3)cc2)n1 [3-[4-(4-Fluorophenoxy)phenyl]-1H-pyrazole-1-carboxylic Acid Dimethylamide] | 8.6
11 | COC(=O)c1ccc(-c2ccc(Oc3ccc(F)cc3)cc2)[nH]1 [Methyl 5-[4-(4-Fluorophenoxy)phenyl]pyrrole-2-carboxylate] | 6
